# Measurements: ChEMBL document CHEMBL4190177 (2016)
# Active and inactive are the calls of the source. The calls are words filed in the database; no cut-off is given here.
# Columns and labels:
# C6 [1] = experiment: Cytotoxicity against rat C6 cells assessed as reduction in cell viability at 10 uM after 72 hrs by MTT assay relative to control; assay type: functional
# C6 [2] = experiment: Cytotoxicity against rat C6 cells assessed as reduction in cell viability after 72 hrs by MTT assay; assay type: functional, cell-based
# U138-MG [3] = experiment: Cytotoxicity against human U138MG cells assessed as reduction in cell viability at 10 uM relative to control; assay type: functional
# C6 [4] = experiment: Cytotoxicity against rat C6 cells assessed as reduction in cell viability at 25 to 50 uM after 72 hrs by MTT assay; assay type: functional, cell-based
# C6 [5] = experiment: Cytotoxicity against rat C6 cells assessed as reduction in cell viability at 50 uM after 72 hrs by MTT assay relative to control; assay type: functional
# C6 [6] = experiment: Cytotoxicity against rat C6 cells assessed as reduction in cell viability at 5 uM after 72 hrs by MTT assay relative to control; assay type: functional
# C6 [7] = experiment: Cytotoxicity against rat C6 cells assessed as reduction in cell viability at 5 to 50 uM after 72 hrs by MTT assay; assay type: functional, cell-based
# C6 [8] = experiment: Cytotoxicity against rat C6 cells assessed as reduction in cell viability at 150 uM relative to control; assay type: functional
# U138-MG [9] = experiment: Cytotoxicity against human U138MG cells assessed as reduction in cell viability at 150 uM relative to control; assay type: functional
smiles,measurement,setting,value
CCCCCCCCCCCCCCCCOC(=O)C1=C(C)NC2=C(C(=O)CC(C)(C)C2)C1c1cccc(O)c1 (stereo not given),Activity,C6 [1],40%
same,Activity,C6 [2],Dose-dependent effect
CCCCCCCCCCCCCCCCOC(=O)C1=C(C)NC(=O)NC1c1cccc(O)c1 (stereo not given),Activity,U138-MG [3],50%
CCCCCCCCCCCCCCCCCCOC(=O)C1=C(C)NC2=C(C(=O)CC(C)(C)C2)C1c1cccc([N+](=O)[O-])c1 (stereo not given),Activity,C6 [4],inactive
same,Activity,C6 [2],Dose-dependent effect
CCOC(=O)C1=C(C)NC(=S)NC1c1cccc(O)c1 (stereo not given) [MONASTROL],Activity,C6 [5],50%
CCCCCCCCCCCCCCCCCCOC(=O)C1=C(C)NC2=C(C(=O)CC(C)(C)C2)C1c1cccc(OC)c1 (stereo not given),Activity,C6 [4],inactive
same,Activity,C6 [2],Dose-dependent effect
CCCCCCCCCCCCCCCCCCOC(=O)C1=C(C)NC2=C(C(=O)CC(C)(C)C2)C1c1cccc(O)c1 (stereo not given),Activity,C6 [2],Dose-dependent effect
same,Activity,C6 [6],40%
CCCCCCCCCCCCCCCCCCOC(=O)C1=C(C)NC2=C(C(=O)CC(C)(C)C2)C1c1ccc(OC)cc1 (stereo not given),Activity,C6 [2],Dose-dependent effect
CCCCCCCCCCCCCCCCOC(=O)C1=C(C)NC2=C(C(=O)CC(C)(C)C2)C1c1ccccc1 (stereo not given),Activity,C6 [2],Dose-dependent effect
CCOC(=O)C1=C(C)NC2=C(C(=O)CC(C)(C)C2)C1c1ccccc1 (stereo not given),Activity,C6 [7],Active
O=Cc1cccc(O)c1 [3-HYDROXYBENZALDEHYDE],Activity,C6 [8],30%
same,Activity,U138-MG [9],30%
